The results in this text go back to PMC10065799, “High-throughput profiling of sequence recognition by tyrosine kinases and SH2 domains using bacterial peptide display” (eLife, 2023).

Experiment in all cases: pTyr-Var library bacterial peptide display kinase screen (enrichment scores)
Test [1] has as its system Fer kinase domain. The test is classed as biochemical, mouse. Conditions: sheet "Fer".
The test system of test [2] is EPHB1 kinase domain. The test is classed as biochemical, human. Conditions: for Screen: sheet EPHB1, effect of the variant peptide relative to its reference peptide in the pTyr-Var library screen (enrichment scores); for Screen (variant relative to reference peptide, measured in the pTyr-Var library screen): sheet "EPHB1", variant seq vs reference seq, bacterial peptide display enrichment.

The test system of test [3] is EPHB2 kinase domain. In kind it is biochemical, human. Conditions: sheet EPHB2.
Test [4] deals with c-Src kinase domain (Homo sapiens, UniProt P12931). The test is classed as biochemical. Conditions: sheet "Src".
Test [5] deals with T1, c-Abl kinase domain (Mus musculus, UniProt P00520).
T1 sequence (P00520 242-493 limits assumed): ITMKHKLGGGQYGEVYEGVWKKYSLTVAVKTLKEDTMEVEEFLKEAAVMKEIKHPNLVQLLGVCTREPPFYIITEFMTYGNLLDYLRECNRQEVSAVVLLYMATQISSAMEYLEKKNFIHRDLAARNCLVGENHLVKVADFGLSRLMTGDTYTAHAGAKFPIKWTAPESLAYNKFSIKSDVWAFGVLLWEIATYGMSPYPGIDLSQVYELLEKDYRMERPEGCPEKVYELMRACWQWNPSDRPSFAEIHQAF
In kind it is biochemical.

[6] abbreviates: value of the variant peptide against its reference peptide in the pTyr-Var library screen with Fer.
Where [7] appears, read: effect of variant peptide relative to its reference peptide in the pTyr-Var library screen (enrichment scores).
Where [8] appears, read: effect of the variant peptide relative to its reference peptide in the pTyr-Var library screen.
The mark [9] stands for this setting: fig5-data2, sheet "Abl", Screen for the variant/reference peptide pair, pTyr-Var library.
The mark [10] stands for this setting: effect of the variant relative to its reference peptide in the pTyr-Var library screen.
Setting [11] is: sheet "Abl", effect of variant peptide relative to its reference peptide in pTyr-Var library screen (enrichment).
Setting [12] is: variant peptide relative to its reference peptide, pTyr-Var library screen enrichment.
Where [13] appears, read: variant peptide versus its reference peptide in the pTyr-Var library screen.

Consider EEVPLYESATT [DCC_Y809_G805E], for which the Screen in test [1] (setting [6]) is reported as -0.3858; in test [2] it was -0.9244; in test [3] (setting [7]), -0.8416.

For LLILEYAKFGS [RET_Y806_V804L_YF], the Screen in test [2] is -0.7851; in test [3] (setting [7]), -0.9388.

As to IGEGTYGVLFK [CDK2_Y15_V18L_YF], the figures for the Screen in test [4] (setting [8]) and in test [3] (setting [7]) were 0.1027 and -0.7589, respectively.

As to LICRRYLVMQR [IL3RA_Y328_V323L], the Screen amounted to 0.743 in test [5] (setting [9]) and 1.326 in test [3] (setting [7]).

Turning to EAEALYQTTFQ [KRT73_Y325_K328T], the Screen in test [4] (setting [8]) is on record as 1.585; in test [1] (setting [6]), 3.654; in test [3] (setting [7]), 1.238.

In the case of TNEFEYDELIV [TGM1_Y136_D132N_YF], the Screen in test [3] (setting [10]) is listed as -2.123.

Consider LQIPMYEVQWK [KIT_Y553_K550I], for which the Screen is listed as 1.435 in test [4] (setting [8]), 1.505 in test [1] (setting [6]), 3.846 in test [2] and 4.801 in test [3] (setting [7]).

With GEHSIYSTVNN [CD55_Y266_C267S], the Screen in test [4] (setting [8]) is 0.6713; in test [1] (setting [6]) it was 1.521; in test [2], 0.557; in test [3] (setting [7]), 1.232.

For FFSSEYHCVGG [CTSC_Y345_Y347C_YF], the Screen in test [4] (setting [8]) is -0.4888; in test [5] (setting [9]) it was 0.5786; in test [2] it was -0.4883; in test [3] (setting [7]), -0.8292.

In test [3] (setting [7]), QELRRYLESGV [MICA_Y194_K196E] showed a Screen of 0.3004.

On to LSIQCYLRASD [HMGCS2_Y262_L266S], for which the Screen in test [1] (setting [6]) was 1.097; in test [2] it was 1.205; in test [3] (setting [7]), 0.8903.

As to KSIQLYDTPFE [SHB_Y297_G293S_YF], the Screen in test [5] (setting [11]) is listed as -1.035; in test [1] (setting [12]), 0.2984; in test [3] (setting [7]) it was 0.4609. Besides, the “Screen (variant relative to reference peptide, measured in the pTyr-Var library screen)” value in test [2] turned out to be 0.5631.

Regarding RRIHSYRSHLW [VHL_Y112_G114S], the values for the Screen in test [4] (setting [13]), in test [5] (setting [11]) and in test [3] (setting [10]) were -3.054, -2.663 and -0.1154, respectively. Besides, the “Screen (variant relative to reference peptide, measured in the pTyr-Var library screen)” value in test [2] was -1.453.

With SNNFIYTTLGV [FAM83B_Y639_K640T_YF], the Screen in test [4] (setting [8]) turned out to be 3.577; in test [1] (setting [6]), 2.656; in test [2], 2.305.

Regarding LRSELYSLIAR [PHIP_Y16_F17S], the values for the Screen in test [4] (setting [13]), in test [1] (setting [6]) and in test [2] were 0.6047, 2.641 and 1.727, respectively.

Turning to ANARMYGVLPW [PLP1_Y207_D203N], the Screen in test [4] (setting [13]) is recorded as -0.7799; in test [3] (setting [7]), -1.895.

With WAFNLYDINKF [KCNIP3_Y174_D179Y_YF], the Screen is -0.1467 in test [4] (setting [8]), 1.417 in test [1] (setting [6]), 0.7978 in test [2] and 0.891 in test [3] (setting [7]).

As to LRSKQYLRNPP [SHC1_Y315_F312S], the values for the Screen in test [5] (setting [11]) and in test [3] (setting [7]) were -0.3171 and -1.743, respectively.

DCVRMYELVHR [GLE1_Y135_G130D]: the Screen in test [1] (setting [6]) is listed as 0.7012; in test [2], -0.05786; in test [3] (setting [7]) it was -0.0869.

RLGVTYEQALA [MAP2_Y996_G991R] gave a Screen in test [3] (setting [7]) of 1.544.

For the sequence LLRFLYFFVCS [SLC34A2_Y109_G106R], the Screen in test [4] (setting [13]) is listed as -1.793; in test [3] (setting [7]), -1.518.

Take HNLDFYKQTTN [FGFR3_Y648_K650Q_YF]: the Screen in test [4] (setting [8]) was -2.522; in test [1] (setting [6]), -2.104; in test [2], -1.421; in test [3] (setting [7]), -1.53.

Regarding AVISVYDLVAF [PSEN1_Y256_V261F], the Screen was 0.3764 in test [4] (setting [13]), 0.2851 in test [1] (setting [6]), 0.6578 in test [2] and 0.9519 in test [3] (setting [7]).

Consider INPIIYAFVGG [CCR5_Y297_E302G], for which the Screen in test [4] (setting [8]) is reported as 0.06385; in test [1] (setting [6]), -0.02742; in test [2], 0.07603; in test [3] (setting [7]), 0.0201.

As for EDEGLYTVRVP [MYOM3_Y343_M344T], the Screen was -0.00676 in test [4] (setting [13]), -0.4796 in test [1] (setting [6]), -1.202 in test [2] and -1.314 in test [3] (setting [7]).

As for HICTAYKLVLA [DHCR24_Y190_E191K], the Screen in test [4] (setting [8]) is on record as -1.13; in test [1] (setting [6]) it was -2.51; in test [3] (setting [7]), 0.4857.

In the case of QNAGDYFDLFG [PTPN11_Y62_T59A_YF], the Screen in test [4] (setting [13]) is reported as -0.3977; in test [2] it was -0.1063; in test [3] (setting [7]), -0.3726.

For QNWELYSEGLG [CNKSR1_Y665_R662W], the Screen in test [4] (setting [8]) came out at 2.202; in test [2] it was 3.643; in test [3] (setting [7]), 3.538.

As to DLNATYCTIQG [U2SURP_Y634_R635C], the Screen worked out at 2.996 in test [4] (setting [13]) and 3.025 in test [3] (setting [10]). Moreover, in test [2], the “Screen (variant relative to reference peptide, measured in the pTyr-Var library screen)” value was 3.639.

Take HLEKKYVHRDS [CSF1R_Y708_R710H]: the Screen is recorded as -3.671 in test [4] (setting [8]), -0.7741 in test [1] (setting [6]), -1.586 in test [2] and -2.097 in test [3] (setting [7]).

With HDRGNYVQLNM [RECQL4_Y353_R355Q], the Screen amounted to 1.895 in test [2] and 1.444 in test [3] (setting [7]).

Take QRALLYEDTLF [UNC13D_Y56_A59T_YF]: the values for the Screen in test [4] (setting [13]), in test [1] (setting [12]) and in test [3] (setting [10]) were 0.3849, 0.1557 and 0.5663, respectively. In addition, the “Screen (variant relative to reference peptide, measured in the pTyr-Var library screen)” value in test [2] is recorded as 0.5027.

As to RGESFYQDTMN [RARS_Y338_R341T], the Screen in test [1] (setting [12]) came to 1.596; in test [2], 2.46; in test [3] (setting [7]) it was 1.971.

Take MKVPLYETPAG [PGM5_Y358_V357L]: the Screen is -1.534 in test [4] (setting [13]), 0.5188 in test [1] (setting [6]), 0.8032 in test [2] and 0.6636 in test [3] (setting [7]).
